Experimental data: US20250143306A1, “COMBINATION FOR IMPROVING PLANT GROWTH AND/OR YIELD, FORMULATION AND METHOD FOR INCREASING PLANT GROWTH, STRESS RESISTANCE, AND YIELDS, AND USE THEREOF” (INSTITUTE OF EXPERIMENTAL BOTANY CAS CR, V.V.I., priority 2022, published 2025)
Marks after values point to notes of the source that are not given here.

Key:
Assay type in all cases: in vivo
[1] = tested on: wheat (Triticum aestivum) cv. Balitus; test: Root and shoot dry weight and total chlorophyll content of wheat under drought stress conditions (Example 2)
Procedure: To investigate the effect of the combinations on the weight parameters, and the total content of chlorophyll, seeds of wheat (Triticum aestivum) cv. Balitus were sown in a hydroponic growing system (Araponics, Liege, Belgium) using Hoagland's solution (control). Twenty days after sowing plants (except for control plants) were sprayed by either MTU (10 μM) or by nitrogen utilization enhancers alone or with a combination of MTU (10 μM) and nitrogen utilization enhancers. The plants were grown in a glasshouse at 20-28° C. under a combination of natural and artificial light. Since the treatment (20 days after sowing), the plants received low water doses. […] The root dry weight (RDW), shoot dry weight (SDW), and total chlorophyll content (TCC) of at least 25 plants were measured at the end of the experiment—45 days after the plants had been sown. RDW and SDW were recorded after drying the plants at 70° C. for 2 days. The chlorophyll content of each plant was measured by SPAD meter reading at the end of the experiment and TCC was calculated as SPAD value per SDW.

[2] = tested on: sunflower (Helianthus sp. L.); test: Seed yield of field-grown sunflower (Example 6); conditions: Hungary 2020, MTU 2 mg/L at 300 L/ha, pyroglutamic acid 50 g/ha
Procedure: Seeds of sunflower (Helianthus sp. L.) were sown in Hungary in 2020 in accordance with the Good Experimental Practice criteria. MTU was applied by spraying at a concentration of 10 μM (2 mg/L) and a dosage of 300 L/ha. Pyroglutamic acid was used at 50 g/ha, applied at a dosage of 300 L/ha in a water solution.

[3] = tested on: Winter wheat variety Barrel; test: Grain yield of field-grown winter wheat (Example 3); conditions: MTU 0.4 g/ha, pyroglutamic acid 40 g/ha, UK 2019
Procedure: (§1) The field experiments were done in 2019 in the UK and they were performed in accordance with the Good Experimental Practice criteria. Winter wheat variety Barrel was used. MTU was applied by spraying at a concentration of 10 μM (2 mg/L) and a dosage of 200 L/ha (0.4 g/ha of MTU). Pyroglutamic acid was used at 40 g/ha, applied at a dose of 200 l/ha in a water solution.

[4] = tested on: wheat (Triticum aestivum) cv. Balitus; test: Root and shoot dry weight and leaf nitrogen content of hydroponically grown wheat under optimal conditions (Example 1)
Procedure: To investigate the effect of the combinations on the weight parameters, the seeds of wheat (Triticum aestivum) cv. Balitus were sown in a hydroponic growing system (Araponics, Liege, Belgium) using Hoagland's solution (control). Twenty days after sowing, plants (except for control plants) were sprayed by aqueous solution of either MTU (10 μM) or by a nitrogen utilization enhancer alone or by a combination of MTU (10 μM) with the nitrogen utilization enhancer. The plants were grown in the Czech Republic in a glasshouse at 16-25° C. under natural and artificial light during the winter period. The root dry weight (RDW), shoot dry weight (SDW) and the nitrogen content in the leaves of at least 30 plants were measured 45 days after the plants had been sown. RDW and SDW were recorded after drying the plants at 70° C. for 2 days.

[5] = tested on: Oilseed rape variety Elgar (2018) and Elizze (2019); test: Grain yield of field-grown oilseed rape (Example 5); conditions: MTU 0.4 g/ha, pyroglutamic acid 40 g/ha
Procedure: Oilseed rape variety Elgar (2018) and Elizze (2019) were grown in the UK in the years 2018 and 2019. Experiments were performed in accordance with the Good Experimental Practice criteria. MTU was applied by spraying at a concentration of 10 μM (2 mg/L) and a dosage of 200 L/ha (0.4 g/ha of MTU). Pyroglutamic acid was used at 40 g/ha, applied at a dosage of 200 L/ha in a water solution.

[6] = tested on: Winter wheat variety Barrel; test: Nitrogen content in grains of field-grown winter wheat, Kjeldahl method (Example 4); conditions: MTU 0.4 g/ha, pyroglutamic acid 40 g/ha
Procedure: as §1
Wheat grains used to make bread require a grain nitrogen content of 2.1% (w/w) or higher. Grains from each sample treatment from the experiment described in Example 3 were analyzed for nitrogen content. The analysis was done using a Kjeldahl method (Kjeldahl, J. (1883) “New method for the determination of nitrogen in organic substances), Zeitschrift für analytische Chemie, 22 (1): 366-383.

winter wheat plants = test: Root dry weight of winter wheat, method of testing the synergistically effective amounts of MTU and PCA (optimal conditions); conditions: 200 mg in 1 liter of composition
Procedure: The synergistically effective amounts of MTU and pyroglutamic acid (PCA) were determined by the method of determining the root growth of winter wheat plants. […].
As a first control, MTU was applied to another group of the winter wheat plants at the following amounts: 1, 2, 4 and 8 mg/liter of the composition.
As a second control, PCA was applied to another group of the winter wheat plants at the amount of 200 mg/liter of the composition.
As a negative control, another group of the winter wheat plants was applied only water in the same amount as the compositions applied to the above-described groups.
The plants were then grown at 20° C. under natural light for a period of 45 days. The root dry weight (RDW) of at least 30 plants was measured 45 days after the plants had been sown for each group. RDW was recorded after drying the plants at 70° C. for 2 days.
The relative increase in RDW was calculated as % of control (Table 1). The % of control for combinations containing MTU: PCA in ratios 1:200, 2:200 and 4:200 was higher than the sum of % of control of only PCA group (+8.8%) with the MTU group (1, 2 or 4 mg).

[7] = UK 2018, application at BBCH 13
[8] = UK 2018, application at BBCH 65
[9] = UK 2019, application at BBCH 65
[10] = UK 2019, application at BBCH 70

For `O=C1CC[C@@H](C(=O)O)N1` [Pyroglutamic acid, pyroglutamic acid], the “RDW % of control” value ([1]; concentration 200 mg/L) was “+11.9%”, the “RDW (root dry weight)” value ([1]; concentration 200 mg/L) was 0.75 g and the “SDW % of control” value ([1]; concentration 200 mg/L) was −1.6%. The “SDW (shoot dry weight)” value ([1]; concentration 200 mg/L) was 1.2 g, the “RDW % of control” value ([1]; concentration 400 mg/L) was “+14.9%” and the “RDW (root dry weight)” value ([1]; concentration 400 mg/L) was 0.77 g. The “SDW % of control” value ([1]; concentration 400 mg/L) was “+0.8%”, the “SDW (shoot dry weight)” value ([1]; concentration 400 mg/L) was 1.23 g and the “Yield % of control” value ([2]; application at BBCH 16-18) was “+5.0%”. For the same compound, the “Yield (seed)” value ([2]; application at BBCH 16-18) was 2.89 t/ha, the “Yield % of control” value ([2]; application at BBCH 55) was “+6.3%” and the “Yield (seed)” value ([2]; application at BBCH 55) was 2.92 t/ha. The “Yield % of control” value ([3]; application at BBCH 32) was “+1.8%”, the “Yield (grain)” value ([3]; application at BBCH 32) was 10.167 t/ha and the “Yield % of control” value ([3]; application at BBCH 39) was “+2.0%”. The “Yield (grain)” value ([3]; application at BBCH 39) was 10.183 t/ha, the “Yield % of control” value ([3]; application at BBCH 50-55) was “+2.6%” and the “Yield (grain)” value ([3]; application at BBCH 50-55) was 10.241 t/ha. For the same compound, the “RDW % of control” value ([4]; concentration 200 mg/L) was “+6.3%”, the “RDW (root dry weight)” value ([4]; concentration 200 mg/L) was 0.85 g and the “SDW % of control” value ([4]; concentration 200 mg/L) was “+6.8%”. The “SDW (shoot dry weight)” value ([4]; concentration 200 mg/L) was 1.63 g, the “Nitrogen content in the leaves” value ([4]; concentration 400 mg/L) was 4.65 weight % and the “RDW % of control” value ([4]; concentration 400 mg/L) was “+13.8%”. The “RDW (root dry weight)” value ([4]; concentration 400 mg/L) was 0.91 g, the “SDW % of control” value ([4]; concentration 400 mg/L) was “+10.5%” and the “SDW (shoot dry weight)” value ([4]; concentration 400 mg/L) was 1.68 g. The “Yield % of control” value [5, 7] was “+5.0%”, the “Yield (grain)” value [5, 7] was 3.97* t/ha and the “Yield % of control” value [5, 8] was “+23.9%”. The “Yield (grain)” value [5, 8] was 5.45* t/ha, the “Yield % of control” value [5, 9] was “+3.5%” and the “Yield (grain)” value [5, 9] was 3.83 t/ha. For the same compound, the “Yield % of control” value [5, 10] was “+5.4%”, the “Yield (grain)” value [5, 10] was 3.90 t/ha and the “Nitrogen content % of control” value ([6]; application at BBCH 32) was −7.0%. The “Nitrogen content (%) of grains” value ([6]; application at BBCH 32) was 1.87%, the “Nitrogen content % of control” value ([6]; application at BBCH 39) was −5.5% and the “Nitrogen content (%) of grains” value ([6]; application at BBCH 39) was 1.90%. The “Nitrogen content % of control” value ([6]; application at BBCH 50-55) was −10.0%, the “Nitrogen content (%) of grains” value ([6]; application at BBCH 50-55) was 1.81% and the “RDW % of control” value (winter wheat plants) was “+8.8%”. For the same compound, the “RDW (root dry weight)” value (winter wheat plants) was 0.99 g.
